The subject of assay [1] is B16F10 cells. Description: Melanin assay (melanin inhibitory effect). It counts as cell-based. As to conditions: 10 μM polypeptide, α-MSH 0.5 μM, 24 hours, absorbance 490 nm, control 10 μM arbutin, FIG. 1. The procedure: B16F10 cells (6×10^4 cells/well) were aliquoted into 6-well plates and incubated. After 12 hours, the medium was changed to a medium containing α-MSH (Sigma, 0.5 μM) and the test substance (each of the polypeptides or control substances of the present invention). Each 10 μM of polypeptides were treated. In addition, 10 μM of arbutin, which is widely known as a skin whitening ingredient, was used as a control. After incubation for 24 hours, cells were harvested. The number of cells was confirmed using a C-chip (disposable hemacytometer, […]). Cells (1×10^5 cells) were lysed with 1N NaOH at 70° C. for 1 hour. After centrifugation at 4,000 rpm for 5 minutes, the supernatant was harvested and the melanin content was measured. The absorbance of melanin was measured at 490 nm using a microplate reader (Synergy 2, BioTek).

Assay [2] has as its target T1, tyrosinase (Mus musculus, UniProt P11344).
T1 construct: Cells were lysed with PBS buffer containing 1% Triton X-100 (Sigma); endogenous in cells; host or cells: B16F10 cells, stimulated with alpha-MSH
T1 sequence (P11344 19-533): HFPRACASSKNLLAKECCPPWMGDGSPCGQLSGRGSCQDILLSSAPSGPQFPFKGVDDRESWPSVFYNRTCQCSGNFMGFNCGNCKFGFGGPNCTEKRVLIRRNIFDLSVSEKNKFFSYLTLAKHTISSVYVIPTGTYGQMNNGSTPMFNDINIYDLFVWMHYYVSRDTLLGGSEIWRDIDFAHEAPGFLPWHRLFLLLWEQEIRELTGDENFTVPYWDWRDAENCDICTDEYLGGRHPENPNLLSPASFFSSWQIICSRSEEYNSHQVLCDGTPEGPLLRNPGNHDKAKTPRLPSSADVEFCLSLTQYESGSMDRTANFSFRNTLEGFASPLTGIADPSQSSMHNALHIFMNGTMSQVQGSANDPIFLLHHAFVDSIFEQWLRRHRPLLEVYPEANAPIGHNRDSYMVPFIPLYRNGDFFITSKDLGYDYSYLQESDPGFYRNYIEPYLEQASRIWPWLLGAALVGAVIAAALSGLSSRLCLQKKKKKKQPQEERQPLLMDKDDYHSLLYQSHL
Description: Tyrosinase activity assay (tyrosinase inhibitory effect). It counts as cell-based. As to conditions: 10 μM polypeptide, α-MSH 0.5 μM, 24 hours, B16F10 cell lysate with 5 mM L-DOPA; control 10 μM arbutin; FIG. 2. The procedure:
B16F10 cells (6×10^4 cells/well) were aliquoted into 6-well plates and incubated. After 12 hours, the medium was changed to a medium containing a-MSH (Sigma, 0.5 μM) and the test substance (each of the polypeptides or control substances of the present invention). Each 10 μM of polypeptides were treated. In addition, 10 μM of arbutin, which is widely known as a skin whitening ingredient, was used as a control. After incubation for 24 hours, cells were harvested. Cells were lysed with PBS buffer containing 1% Triton X-100 (Sigma). After centrifugation at 12,000 rpm for 20 minutes, the supernatant was harvested and the protein concentration was measured by BCA assay kit (Thermo Fisher Scientific). To measure tyrosinase activity, 50 μg of protein (protein contained in the supernatant) was incubated at 37° C. with 5 mM L-DOPA. Absorbance was measured at 490 nm using a microplate reader (Synergy 2, BioTek). Absorbance was measured every 10 minutes for 1 hour.

Turning to “ADQIIEYLKQQVSLL (amino acid sequence of peptide for skin whitening (AIMP1 18aa - 32aa)) [Peptide S2]”, the “inhibitory effect of melanin production” value in assay [1] is reported as “better inhibitory effect of melanin production than arbutin”. Also, the “inhibitory effect of tyrosinase” value in assay [2] is recorded as “same level of the inhibitory effect of tyrosinase as arbutin”.

“LKEKAILQATLREEK (peptide fragment from AIMP1(AIMP1 32aa - 46aa)) [Peptide S10]”: in assay [1], the “inhibitory effect of melanin production” value was “completely absent”. In addition, the “inhibitory effect of tyrosinase” value in assay [2] was “insignificant”.

(Values after patent publication US20230242584A1, “NOVEL POLYPEPTIDES WITH SKIN WHITENING ACTIVITY AND USE THEREOF” (Metapore Co., Ltd., priority 2019, published 2023).)
